The series can be described thus: chemical recovery from spiked human plasma; higher = better extraction. The following applies: pooled human plasma.
Setting [1] is: extraction method: PES+SPE (3 d PDMS equilibration then HLB SPE).
The mark [2] stands for this setting: extraction method: SPE only (HLB 96-well).
Setting [3] is: extraction method: SPE only (HLB 96-well), PES comparison experiment.
[4] abbreviates: extraction method: solvent precipitation (ACN + hexane).

The results in this text go back to the supplement of paper PMC10702517.

± gives the standard deviation.

With `Cc1cccc(C)c1NC(=O)CS(=O)(=O)O`, the chemical recovery is, setting by setting: under setting [1], 21.8 ± 8.2%; under setting [2], 5.38 ± 9.3%; under setting [3], 38.3 ± 6.6%.

In the case of `Clc1nc2ccccc2s1`, under setting [4], the chemical recovery turned out to be 5.44 ± 5.7%.

Consider `CC(c1ccc(O)cc1)(c1ccc(O)cc1)c1ccc(O)cc1` [1,1,1-Tris(4-hydroxyphenyl)ethane], for which the chemical recovery by setting is: under setting [1], 59.9 ± 5%; under setting [2], 43.2 ± 4.1%; under setting [4], 43.3 ± 2.1%.

With `COc1ccc(C(c2ccc(OC)cc2)C(Cl)Cl)cc1` [1,1-Dichloro-2,2-bis(4-methoxyphenyl)ethan], the chemical recovery under setting [2] was determined as 9.27 ± 2.4% and the chemical recovery under setting [4] came out at 33.1 ± 7.1%.

Turning to `O=c1[nH]sc2ccccc12` [1,2-Benzisothiazolinone], the chemical recovery was 7.12 ± 0.96% under setting [1], 10.7 ± 1.4% under setting [2], 1.19 ± 2.4% under setting [3] and 5.44 ± 4.6% under setting [4].

Turning to `Cc1ccccc1NC(=N)Nc1ccccc1C` [1,3-Di-o-tolylguanidine], the chemical recovery under setting [1] came to 20.9 ± 2.6%, the chemical recovery under setting [2] was determined as 34.2 ± 2.8% and the chemical recovery under setting [4] worked out at 64.5 ± 1.7%.

Consider `N=C(Nc1ccccc1)Nc1ccccc1` [1,3-Diphenylguanidine], for which the chemical recovery is, setting by setting: under setting [1], 22.6 ± 3%; under setting [2], 34.5 ± 2.5%; under setting [3], 48.7 ± 4.8%; under setting [4], 59.5 ± 2.6%.

Regarding `O=C(Nc1ccccc1)Nc1ccccc1` [1,3-Diphenylurea], the chemical recovery reads like this: under setting [1], 65.9 ± 7.5%; under setting [2], 46.9 ± 3.4%; under setting [4], 84.4 ± 7.3%.

As for `Cc1cc2cccc(C)c2cc1C` [1,6,7-Trimethylnaphthalene], the chemical recovery under setting [2] amounted to 2.3 ± 4%.

For the compound `Nc1ccc2nc3c(N)cccc3nc2c1` [1,7-Diaminophenazine], the chemical recovery reads like this: under setting [1], 15 ± 1.5%; under setting [2], 52.7 ± 6.3%.

In the case of `Cn1cnc2c1c(=O)n(CCCC(=O)O)c(=O)n2C` [1-(3-carboxypropyl)-3,7-dimethylxanthine], the chemical recovery is, setting by setting: under setting [1], 72.3 ± 13%; under setting [2], 54.3 ± 10%; under setting [4], 59.8 ± 6.9%.

Consider `O=C(Nc1ccccc1)NC1CCCCC1` [1-Cyclohexyl-3-phenylurea], for which the chemical recovery runs as follows: under setting [1], 70.3 ± 10%; under setting [2], 57.4 ± 16%; under setting [4], 79.9 ± 4%.

Take `CCCCCCCCCCS(=O)(=O)O` [1-Decanesulfonic-acid]: the chemical recovery reads like this: under setting [1], 42 ± 5.2%; under setting [2], 31.5 ± 2.9%; under setting [4], 61.5 ± 1.9%.

In the case of `CCCCCCCCCCCCS(=O)(=O)O` [1-Dodecanesulfonic-acid], the chemical recovery is, setting by setting: under setting [2], 25.6 ± 3%; under setting [4], 52.1 ± 2.3%.

`CCn1cc[n+](C)c1` [1-Ethyl-3-methyl-imidazolium] returned a chemical recovery under setting [2] of 0.856 ± 0.42%.

As for `CCCCCCS(=O)(=O)O` [1-Hexanesulfonic-acid], the chemical recovery under setting [1] came to 31.6 ± 3.8%, the chemical recovery under setting [2] came to 30.6 ± 4.2% and the chemical recovery under setting [4] came out at 74.2 ± 8.3%.

As to `Cc1cccc2cc3ccccc3cc12` [1-Methylanthracene], under setting [2], the chemical recovery is 4.65 ± 1.1%.

For `Cc1cccc2ccccc12` [1-Methylnaphthalene], under setting [2], the chemical recovery is 2.62 ± 2%.

For `Cc1ccc2ccc3cccc4ccc1c2c34` [1-Methylpyrene], the chemical recovery amounted to 3.46 ± 0.94% under setting [2] and 34 ± 4% under setting [4].

`O=S(=O)(O)c1cccc2c(O)cccc12` [1-Naphthol-5-sulfonic acid] gave a chemical recovery under setting [3] of 35.9 ± 5.8%.

As for `O=C(c1ccc(O)cc1O)c1ccc(O)cc1O` [2,2',4,4'-Tetrahydroxybenzophenone], the chemical recovery is, setting by setting: under setting [1], 50 ± 4.4%; under setting [2], 51.4 ± 4.7%.

Take `Oc1ccccc1-c1ccccc1O` [2,2'-Dihydroxybiphenyl]: the chemical recovery reads like this: under setting [1], 46.1 ± 1.6%; under setting [2], 43.3 ± 2.8%.

Under setting [2], `Cc1cc(Cc2cc(C)cc(C(C)(C)C)c2O)c(O)c(C(C)(C)C)c1` [2,2'-Methylenebis(6-tert-butyl-p-cresol)] displayed a chemical recovery of 7.83 ± 3.9%.

As for `CCc1cc(Cc2cc(CC)cc(C(C)(C)C)c2O)c(O)c(C(C)(C)C)c1` [2,2'-Methylenebis(ethyl-6-tert-butylphenol)], the chemical recovery by setting is: under setting [2], 3.63 ± 3.5%; under setting [4], 64.9 ± 8.7%.

Take `Nc1ccc(Cc2ccc(N)c(Cl)c2)cc1Cl` [2,2'-dichloro-4,4'-methylenedianiline]: the chemical recovery under setting [1] was found to be 28.7 ± 6.4%, the chemical recovery under setting [2] came out at 47 ± 13% and the chemical recovery under setting [4] was 71.3 ± 5.2%.

In the case of `Cc1c(Br)c(Br)c(C)c(Br)c1Br` [2,3,5,6-Tetrabromo-p-xylene], the chemical recovery runs as follows: under setting [1], 83.9 ± 17%; under setting [2], 17 ± 6.2%; under setting [4], 103 ± 16%.

`Cc1ccc(C)c(O)c1C` [2,3,6-Trimethylphenol] registered a chemical recovery under setting [2] of 0.62 ± 1.1%.

Under setting [2], `Cc1cc2ccccc2cc1C` [2,3-Dimethylnaphthalene] displayed a chemical recovery of 0.0627 ± 0.11%.

For the compound `C[N+](C)(C)CC1CO1` (stereo unspecified) [2,3-Epoxypropyltrimethylammonium], the chemical recovery is, setting by setting: under setting [1], 0.728 ± 0.46%; under setting [2], 0.76 ± 0.94%.

Consider `Oc1c(Br)cc(Br)cc1Br` [2,4,6-Tribromophenol], for which the chemical recovery is, setting by setting: under setting [1], 46.9 ± 0.63%; under setting [2], 35 ± 8.7%; under setting [4], 55.2 ± 4.1%.

Consider `O=C(O)CCCOc1ccc(Cl)cc1Cl` [2,4-DB], for which the chemical recovery under setting [1] is 66.6 ± 7.5%, the chemical recovery under setting [2] is 50.7 ± 2.8% and the chemical recovery under setting [4] was found to be 61.5 ± 6%.

Regarding `O=C(O)COc1ccc(Cl)cc1Cl` [2,4-Dichlorophenoxyacetic acid], the chemical recovery was 56.3 ± 5.5% under setting [3] and 73.2 ± 6.1% under setting [4].

`O=C(c1ccccc1)c1ccc(O)cc1O` [2,4-Dihydroxybenzophenone]: the chemical recovery under setting [1] is 53.8 ± 3.7%, the chemical recovery under setting [2] was 42.1 ± 2.9% and the chemical recovery under setting [4] stood at 59.2 ± 3.6%.

Take `NC(=O)c1c(Cl)cccc1Cl` [2,6-Dichlorobenzamide]: under setting [2], the chemical recovery is 63.3 ± 4.5%.

For `CC(C)c1ccc2cc(C(C)C)ccc2c1` [2,6-Diisopropylnaphthalene], the chemical recovery under setting [3] was found to be 16.8 ± 6.9%.

`Cc1ccc2cc(C)ccc2c1` [2,6-Dimethylnaphthalene] yielded a chemical recovery under setting [2] of 0.083 ± 0.072%.

Regarding `Cc1cccc(C)c1N` [2,6-Xylidine], the chemical recovery under setting [2] amounted to 7.08 ± 5% and the chemical recovery under setting [4] was determined as 48 ± 3.5%.

For the compound `O=S(=O)(O)c1ccc2ccc(S(=O)(=O)O)cc2c1` [2,7-Naphthalenedisulfonic acid], the chemical recovery runs as follows: under setting [2], 60.6 ± 17%; under setting [4], 72.8 ± 11%.

Take `Nc1ccc2nc3ccc(N)cc3nc2c1` [2,8-Diaminophenazine]: the chemical recovery was 11.8 ± 0.64% under setting [1], 38.5 ± 14% under setting [2] and 53.2 ± 6.7% under setting [4].

In the case of `COCCOCCOCCO` [2-(2-(2-Methoxyethoxy)ethoxy)ethanol], the chemical recovery reads like this: under setting [1], 7.13 ± 2.3%; under setting [2], 6.88 ± 5.6%.

In the case of `c1ccc2cc(-c3cc4ccccc4s3)ccc2c1` [2-(2-Naphthalenyl)benzothiophene], the chemical recovery reads like this: under setting [1], 59.8 ± 2.4%; under setting [2], 0.402 ± 0.15%; under setting [4], 23.4 ± 1%.

`O=S(=O)(O)CCNC1CCCCC1` [2-(Cyclohexylamino)-ethansulfonic-acid]: the chemical recovery is 0.697 ± 0.13% under setting [1], 2.37 ± 1.9% under setting [2] and 72.2 ± 2.7% under setting [4].

Turning to `NCCN1CCNCC1` [2-(Piperazin-1-yl)ethanamine], the chemical recovery under setting [3] was determined as 1.9 ± 2.2%.

For `N#CSCSc1nc2ccccc2s1` [2-(Thiocyanomethylthio)benzothiazole], the chemical recovery was 44.1 ± 2.3% under setting [2] and 18.4 ± 10% under setting [4].

`CC(=O)c1ccc2ccccc2c1` [2-Acetonaphthone] yielded a chemical recovery under setting [3] of 80.9 ± 10%.
